Measured values: patent publication US9169217B2, “Arylalkyl esters of 4-amino-6-(substituted phenyl)-picolinates and 6-amino-2-(substituted phenyl)-pyrimidinecarboxylates and their use as selective herbicides for crops” (Dow AgroSciences LLC, priority 2011, dated 2015)

Assays:
Type in all cases: in vivo
[1] = test system: Ipomoea hederacea (Morningglory, ivyleaf); experiment: General postemergence herbicidal activity (Example 13); conditions: post-emergent spray, 14 DAA
Protocol: Seeds or nutlets of the desired test plant species were planted in Sun Gro Metro-Mix® 360 planting mixture, which typically has a pH of 6.0 to 6.8 and an organic matter content of about 30 percent, in plastic pots with a surface area of 84.6 square centimeters (cm^2). When required to ensure good germination and healthy plants, a fungicide treatment and/or other chemical or physical treatment was applied. The plants were grown for 7-31 days (d) in a greenhouse with an approximate 15 hour (h) photoperiod which was maintained at about 23-29° C. during the day and 22-28° C. during the night. Nutrients and water were added on a regular basis and supplemental lighting was provided with overhead metal halide 1000-Watt lamps as necessary. The plants were employed for testing when they reached the first or second true leaf stage.
Treatments consisted of esters of compounds 33 and 39 and F and G. Compound F is methyl 6-amino-2-(4-chloro-2-fluoro-3-methoxyphenyl)-5-methoxypyrimidine-4-carboxylate; and compound G is methyl 4-amino-3-chloro-6-(4-chloro-2-fluoro-3-methoxyphenyl)picolinate. A weighed amount, determined by the highest rate to be tested, of each test compound was placed in a 25 mL glass vial and was dissolved in 4 mL of a 97:3 v/v (volume/volume) mixture of acetone and dimethyl sulfoxide (DMSO) to obtain concentrated stock solutions. […] The concentrated stock solutions obtained were diluted with 20 mL of an aqueous mixture containing acetone, water, isopropyl alcohol, DMSO, Atplus 411F crop oil concentrate, and Triton® X-155 surfactant in a 48.5:39:10:1.5:1.0:0.02 v/v ratio to obtain spray solutions containing the highest application rates. Additional application rates were obtained by serial dilution of 12 mL of the high rate solution into a solution containing 2 mL of a 97:3 v/v (volume/volume) mixture of acetone and DMSO and 10 mL of an aqueous mixture containing acetone, water, isopropyl alcohol, DMSO, Atplus 411F crop oil concentrate, and Triton® X-155 surfactant in a 48.5:39:10:1.5:1.0:0.02 v/v ratio to obtain ½×, ¼×, ⅛× and 1/16× rates of the high rate. Compound requirements are based upon a 12 mL application volume at a rate of 187 liters per hectare (L/ha). Formulated compounds were applied to the plant material with an overhead Mandel track sprayer equipped with 8002E nozzles calibrated to deliver 187 L/ha over an application area of 0.503 square meters (m^2) at a spray height of 18 inches (43 cm) above the average plant canopy height. Control plants were sprayed in the same manner with the solvent blank.
(§1) The treated plants and control plants were placed in a greenhouse as described above and watered by sub-irrigation to prevent wash-off of the test compounds. After 14 d, the condition of the test plants as compared with that of the untreated plants was determined visually and scored on a scale of 0 to 100 percent where 0 corresponds to no injury and 100 corresponds to complete kill.

[2] = test system: Brassica sinapis (Mustard, wild); experiment: Postemergence herbicidal activity in cereal crops (Example 14); conditions: wheat cropping systems, postemergence spray, 35 g ae/ha, 21 DAA
Protocol: (§2) Seeds of the desired test plant species were planted in Sun Gro Metro-Mix® 360 planting mixture, which typically has a pH of 6.0 to 6.8 and an organic matter content of about 30 percent, in plastic pots with a surface area of 84.6 cm^2. When required to ensure good germination and healthy plants, a fungicide treatment and/or other chemical or physical treatment was applied. The plants were grown for 7-36 d in a greenhouse with an approximate 14 h photoperiod which was maintained at about 18° C. during the day and 17° C. during the night. Nutrients and water were added on a regular basis and supplemental lighting was provided with overhead metal halide 1000-Watt lamps as necessary. The plants were employed for testing when they reached the second or third true leaf stage.
(§3) Treatments consisted of esters of compounds 33, 34, 39, 40 and 42 and B, F, G and H. Compound B is methyl 4-amino-3-chloro-6-(4-cyclopropylphenyl)-5-fluoropicolinate; compound F is methyl 6-amino-2-(4-chloro-2-fluoro-3-methoxyphenyl)-5-methoxypyrimidine-4-carboxylate; compound G is methyl 4-amino-3-chloro-6-(4-chloro-2-fluoro-3-methoxyphenyl)picolinate; and compound H is methyl 4-amino-3-chloro-6-(4-chloro-2-fluoro-3-(1-fluoroethyl)phenyl)-5-fluoropicolinate. A weighed amount, determined by the highest rate to be tested, of each test compound was placed in a 25 mL glass vial and was dissolved in 8 mL of a 97:3 v/v mixture of acetone and DMSO to obtain concentrated stock solutions. […] The concentrated stock solutions obtained were diluted with 16 mL of an aqueous mixture containing acetone, water, isopropyl alcohol, DMSO, Agri-dex crop oil concentrate, and Triton® X-77 surfactant in a 64.7:26.0:6.7:2.0:0.7:0.01 v/v ratio to obtain spray solutions containing the highest application rates. Additional application rates were obtained by serial dilution of 12 mL of the high rate solution into a solution containing 4 mL of a 97:3 v/v mixture of acetone and DMSO and 8 mL of an aqueous mixture containing acetone, water, isopropyl alcohol, DMSO, Agri-dex crop oil concentrate, and Triton® X-77 surfactant in a 48.5:39.0:10.0:1.5:1.0:0.02 v/v ratio to obtain ½×, ¼×, ⅛× and 1/16× rates of the high rate. Compound requirements are based upon a 12 mL application volume at a rate of 187 L/ha. Formulated compounds were applied to the plant material with an overhead Mandel track sprayer equipped with 8002E nozzles calibrated to deliver 187 L/ha over an application area of 0.503 m^2 at a spray height of 18 inches (43 cm) above average plant canopy height. Control plants were sprayed in the same manner with the blank.
as §1, with “20-22” for “14”

[3] = test system: Matricaria chamomilla (Mayweed, wild); experiment: as above; conditions: wheat cropping systems, postemergence spray, 35 g ae/ha, 21 DAA
Protocol: as §2, §3
as §1, with “20-22” for “14”

[4] = test system: Polygonum convolvulus (Buckwheat, wild); experiment: as above; conditions: wheat cropping systems, postemergence spray, 35 g ae/ha, 21 DAA
Protocol: as §2, §3
as §1, with “20-22” for “14”

[5] = 35 g ai/ha, 0 = no injury, 100 = complete kill

Row | SMILES | Visual Injury (%) IPOHE ([1]; 8.75 g ai/ha) [%] | Visual Injury (%) IPOHE ([1]; 17.5 g ai/ha) [%] | Visual Injury (%) IPOHE [1, 5] [%] | Visual Injury (%) SINAR [2] [%] | Visual Injury (%) MATCH [3] [%] | Visual Injury (%) POLCO [4] [%] | Visual Injury (%) IPOHE ([1]; 70 g ai/ha) [%]
1 | COc1c(Cl)ccc(-c2cc(N)c(Cl)c(C(=O)OCc3ccccc3)n2)c1F [Compound 39] | 70 | 75 | 80 | 95 | 95 | 95 | –
2 | COC(=O)c1nc(-c2ccc(C3CC3)cc2)c(F)c(N)c1Cl [Compound B, methyl 4-amino-3-chloro-6-(4-cyclopropylphenyl)-5-fluoropicolinate] | – | – | – | 70 | – | 62 | –
3 | Nc1c(F)c(-c2ccc(C3CC3)cc2)nc(C(=O)OCc2ccccc2)c1Cl [Compound 42, benzyl 4-amino-3-chloro-6-(4-cyclopropylphenyl)-5-fluoropicolinate] | – | – | – | 93 | – | 95 | –
4 | COC(=O)c1nc(-c2ccc(Cl)c(OC)c2F)cc(N)c1Cl [Compound G, methyl 4-amino-3-chloro-6-(4-chloro-2-fluoro-3-methoxyphenyl)picolinate, reference compound] | 40 | 50 | 65 | 80 | 75 | 85 | –
5 | COC(=O)c1nc(-c2ccc(Cl)c(OC)c2F)nc(N)c1OC [Compound F, methyl 6-amino-2-(4-chloro-2-fluoro-3-methoxyphenyl)-5-methoxypyrimidine-4-carboxylate, reference compound] | – | – | – | – | 10 | – | 80
